Source: patent US9149038B2, “4-amino-6-(heterocyclic)picolinates and 6-amino-2-(heterocyclic)pyrimidine-4-carboxylates and their use as herbicides” (Dow AgroSciences LLC, priority 2013, dated 2015)
Like-named read-outs stand apart in the source and are kept apart here.

How the values were obtained:
[1] = tested on: Key Broadleaf Weed and Crop Species; experiment: Post-Emergent Test II: postemergent herbicidal activity, visual rating after 14 d (Table 7); format: in vivo; settings: post-emergence, 336 h; for pest or weed control at 35 g/ha: 35 g ai/ha; for pest or weed control at 70 g/ha: 70 g ai/ha; for pest or weed control at 140 g/ha: 140 g ai/ha
Method in brief: (§1)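 Scoring is visual, 0-100, at 14 d after application, comparing treated with untreated plants. Application: overhead track spray at 187 L/ha onto seedlings at 1-2 true leaves, in surfactant/crop-oil carrier.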

[2] = tested on: Key Grass and Sedge Weeds as well as Grass Crops; experiment: Post-Emergent Test II: postemergent herbicidal activity, visual rating after 14 d (Table 8); format: in vivo; settings: post-emergence, 336 h; for pest or weed control at 35 g/ha: 35 g ai/ha; for pest or weed control at 70 g/ha: 70 g ai/ha; for pest or weed control at 140 g/ha: 140 g ai/ha
Method in brief: as §1

[3] = lambsquarters (Chenopodium album), read-out: Visual Growth Reduction (%) 14 Days After Application CHEAL
[4] = oilseed rape, canola (Brassica napus), read-out: Visual Growth Reduction (%) 14 Days After Application BRSNN
[5] = redroot pigweed (Amaranthus retroflexus), read-out: Visual Growth Reduction (%) 14 Days After Application AMARE
[6] = sunflower (Helianthus annuus), read-out: Visual Growth Reduction (%) 14 Days After Application HELAN
[7] = velvetleaf (Abutilon theophrasti), read-out: Visual Growth Reduction (%) 14 Days After Application ABUTH
[8] = wild poinsettia (Euphorbia heterophylla), read-out: Visual Growth Reduction (%) 14 Days After Application EPHHL
[9] = barnyardgrass (Echinochloa crus-galli), read-out: Visual Growth Reduction (%) 14 Days After Application ECHCG
[10] = giant foxtail (Setaria faberi), read-out: Visual Growth Reduction (%) 14 Days After Application SETFA
[11] = maize, corn (Zea mays), read-out: Visual Growth Reduction (%) 14 Days After Application ZEAMX
[12] = rice (Oryza sativa), read-out: Visual Growth Reduction (%) 14 Days After Application ORYSA
[13] = wheat, spring (Triticum aestivum), read-out: Visual Growth Reduction (%) 14 Days After Application TRZAS
[14] = yellow nutsedge (Cyperus esculentus), read-out: Visual Growth Reduction (%) 14 Days After Application CYPES

Nc1c(F)c(-c2cc(F)c3c(c2)OC(F)(F)O3)nc(C(=O)O)c1Cl [Compound 18]
pest or weed control at 35 g/ha [1, 3]: 0 to 29% | pest or weed control at 70 g/ha [1, 3]: 0 to 29% | pest or weed control at 140 g/ha [1, 3]: 0 to 29% | pest or weed control at 35 g/ha [1, 4]: 0 to 29% | pest or weed control at 70 g/ha [1, 4]: 0 to 29% | pest or weed control at 140 g/ha [1, 4]: 0 to 29% | pest or weed control at 35 g/ha [1, 5]: 0 to 29% | pest or weed control at 70 g/ha [1, 5]: 0 to 29% | pest or weed control at 140 g/ha [1, 5]: 0 to 29% | pest or weed control at 35 g/ha [1, 6]: 0 to 29% | pest or weed control at 70 g/ha [1, 6]: 0 to 29% | pest or weed control at 140 g/ha [1, 6]: 45 to 59% | pest or weed control at 35 g/ha [1, 7]: 0 to 29% | pest or weed control at 70 g/ha [1, 7]: 0 to 29% | pest or weed control at 140 g/ha [1, 7]: 0 to 29% | pest or weed control at 35 g/ha [1, 8]: 0 to 29% | pest or weed control at 70 g/ha [1, 8]: 0 to 29% | pest or weed control at 140 g/ha [1, 8]: 0 to 29% | pest or weed control at 35 g/ha [2, 9]: 45 to 59% | pest or weed control at 70 g/ha [2, 9]: 60 to 74% | pest or weed control at 140 g/ha [2, 9]: 60 to 74% | pest or weed control at 35 g/ha [2, 10]: 45 to 59% | pest or weed control at 70 g/ha [2, 10]: 45 to 59% | pest or weed control at 140 g/ha [2, 10]: 60 to 74% | pest or weed control at 35 g/ha [2, 11]: 0 to 29% | pest or weed control at 70 g/ha [2, 11]: 30 to 44% | pest or weed control at 140 g/ha [2, 11]: 60 to 74% | pest or weed control at 35 g/ha [2, 12]: 0 to 29% | pest or weed control at 70 g/ha [2, 12]: 0 to 29% | pest or weed control at 140 g/ha [2, 12]: 0 to 29% | pest or weed control at 35 g/ha [2, 13]: 0 to 29% | pest or weed control at 70 g/ha [2, 13]: 45 to 59% | pest or weed control at 140 g/ha [2, 13]: 45 to 59% | pest or weed control at 35 g/ha [2, 14]: 0 to 29% | pest or weed control at 70 g/ha [2, 14]: 0 to 29% | pest or weed control at 140 g/ha [2, 14]: 0 to 29%
